Ki data for 20 compounds are collected here from patent US8530652B2, “Pyrrolopyrazoles, potent kinase inhibitors” (Agouron Pharmaceuticals, Inc., priority 2005, dated 2013).

This assay deals with PAK4 kinase domain (PAK4 KD) (Homo sapiens (Human), UniProt O96013). Put plainly: PAK4 kinase domain enzymatic assay (coupled PK/LDH, NADH absorbance at 340 nm). The assay is classed as biochemical. The note with it: PAK4 kinase domain, 25 nM PAK4 KD, 0.04 mM ATP, pH 7.5. From the text: Cloning, expression, and purification of recombinant PAK4 Kinase domain (PAK4 KD): The cDNA coding for PAK4 was amplified from the EST clone (#12) (purchased from Research Genetics) by using PCR. […] The PCR amplified product was cloned into Topo vector (Invitrogen Inc.), and verified by DNA sequencing. PAK4 KD was then subcloned into expression plasmid pET28a(+), pET24a(+), or pGST4.5. The recombinant plasmids containing PAK4 KD was transformed into BL21(DE3) cells for recombinant protein expression. […] The cells were then harvested and lyzed for protein purification. Ni-NTA column (pET28a(+), pET24a(+)) and glutathione column (pGST4.5) were used for the purification.
PAK4 kinase domain (PAK4 KD), sequence (O96013 321-572): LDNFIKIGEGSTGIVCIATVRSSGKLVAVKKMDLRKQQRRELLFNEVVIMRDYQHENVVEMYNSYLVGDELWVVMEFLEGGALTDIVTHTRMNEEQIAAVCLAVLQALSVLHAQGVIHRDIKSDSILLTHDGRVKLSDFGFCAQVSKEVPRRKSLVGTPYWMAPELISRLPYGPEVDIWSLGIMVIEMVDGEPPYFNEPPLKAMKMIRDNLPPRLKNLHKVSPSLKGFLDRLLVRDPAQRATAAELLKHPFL
PAK4 kinase domain enzymatic assay conditions: the enzymatic activity of PAK4 KD was measured by its ability to catalyze the transfer of a phosphate residue from a nucleoside triphosphate to an amino acid side chain of a commercially available peptide (amino acid sequence […]). The conversion of ATP to ADP accompanies the catalytic reaction. The PAK4 KD catalyzed production of ADP from ATP was coupled to the oxidation of NADH through the activities of pyruvate kinase (PK) and lactate dehydrogenase (LDH). The conversion of NADH to NAD^+ is monitored by the decrease in absorbance at 340 nm (e340=6.22 cm^−1mM^−1) using a Molecular Devices SPECTRAMAX 190 in conjunction with the Biomec FX. Typical reaction solutions contain 2 mM phosphoenolpyruvate, 0.35 mM NADH, 10 mM MgCl2, 1 mM DTT, 0.4 mM peptide ([…]) 0.04 mM ATP, 1 units/mL PK, 1 units/mL LDH, 0.01% Tween 20 in 50 mM HEPES, pH 7.5. […] The PAK KD Ki of each compound of the invention (the inhibitor) was calculated based on multiple of Percent Inhibition numbers of the inhibitor at different inhibitor concentrations. The peptide (amino sequence […]) was purchased from American Peptide Company. NADH, MgCl2, HEPES, DTT, ATP and PK/LDH were purchased from Sigma. Tween 20 was purchased from Calbiochem.
For the compound `CC1(C)c2[nH]nc(Nc3cc(Cl)nc(Cl)n3)c2CN1C(=O)N[C@H]1C[C@@H]1c1ccccc1` (relative stereo) [Example 4, 3-[(2,6-dichloropyrimidin-4-yl)amino]-6,6-dimethyl-N-[trans-2-phenylcyclopropyl]-4,6-dihydropyrrolo[3,4-c]pyrazole-5(1H)-carboxamide], the Ki (as a rule, the equilibrium dissociation constant of an inhibitor or competing ligand from its target) was determined as 110 nM.
`CC1(C)c2[nH]nc(Nc3nc(N)nc(Cl)n3)c2CN1C(=O)N[C@@H]1C[C@H]1c1ccccc1` (relative stereo) [Example 8, 3-[(4-amino-6-chloro-1,3,5-triazin-2-yl)amino]-6,6-dimethyl-N-[trans-2-phenylcyclopropyl]-4,6-dihydropyrrolo[3,4-c]pyrazole-5(1H)-carboxamide] yielded a Ki of 610 nM.
The compound `CSc1nc(Nc2n[nH]c3c2CN(C(=O)N[C@@H]2C[C@H]2c2ccccc2)C3(C)C)cc(C(F)(F)F)n1` (relative stereo) [Example 11, 6,6-dimethyl-3-{[2-(methylthio)-6-(trifluoromethyl)pyrimidin-4-yl]amino}-N-[trans-2-phenylcyclopropyl]-4,6-dihydropyrrolo[3,4-c]pyrazole-5(1H)-carboxamide] displayed a Ki of 960 nM.
Take `COc1nc(Nc2n[nH]c3c2CN(C(=O)N[C@H]2C[C@@H]2c2ccccc2)C3(C)C)nc(OC)n1` (relative stereo) [Example 14, 3-[(4,6-dimethoxy-1,3,5-triazin-2-yl)amino]-6,6-dimethyl-N-[trans-2-phenylcyclopropyl]-4,6-dihydropyrrolo[3,4-c]pyrazole-5(1H)-carboxamide]: the affinity corresponds to a Ki of 270 nM.
Compound `COc1nc(Nc2n[nH]c3c2CN(C(=O)N[C@@H]2C[C@H]2c2ccccc2)C3(C)C)nc(N2CCCC2)n1` (relative stereo) [Example 19, 3-[(4-methoxy-6-pyrrolidin-1-yl-1,3,5-triazin-2-yl)amino]-6,6-dimethyl-N-[trans-2-phenylcyclopropyl]-4,6-dihydropyrrolo[3,4-c]pyrazole-5(1H)-carboxamide] showed a Ki of 190 nM.
On to `CC1(C)c2[nH]nc(Nc3cc(C(F)(F)F)ccn3)c2CN1C(=O)N[C@H]1C[C@@H]1c1ccccc1` (relative stereo) [Example 25, 3-[(4-trifluoromethylpyridin-2-yl)amino]-6,6-dimethyl-N-[trans-2-phenylcyclopropyl]-4,6-dihydropyrrolo[3,4-c]pyrazole-5(1H)-carboxamide], for which the Ki was 780 nM.
Then `Cc1cc(C(F)(F)F)cc(Nc2n[nH]c3c2CN(C(=O)N[C@H]2C[C@@H]2c2ccccc2)C3(C)C)n1` (relative stereo) [Example 26, 3-[(4-trifluoromethyl-6-methylpyridin-2-yl)amino]-6,6-dimethyl-N-[trans-2-phenylcyclopropyl]-4,6-dihydropyrrolo[3,4-c]pyrazole-5(1H)-carboxamide], with 220 nM; and `CC1(C)c2[nH]nc(Nc3cccc(C(F)(F)F)n3)c2CN1C(=O)N[C@H]1C[C@@H]1c1ccccc1` (relative stereo) [Example 27, 3-[(6-trifluoromethylpyridin-2-yl)amino]-6,6-dimethyl-N-[trans-2-phenylcyclopropyl]-4,6-dihydropyrrolo[3,4-c]pyrazole-5(1H)-carboxamide], with 200 nM; and `CC1(C)c2[nH]nc(Nc3nccc(C(F)(F)F)n3)c2CN1C(=O)N[C@H]1C[C@@H]1c1ccccc1` (relative stereo) [Example 28, 6,6-dimethyl-N-[trans-2-phenylcyclopropyl]-3-{[4-(trifluoromethyl)pyrimidin-2-yl]amino}-4,6-dihydropyrrolo[3,4-c]pyrazole-5(1H)-carboxamide], with 270 nM.
As for `CC1(C)c2[nH]nc(Nc3cc(C#N)ccn3)c2CN1C(=O)N[C@H]1C[C@@H]1c1ccccc1` (relative stereo) [Example 29, 3-[(4-cyanopyridin-2-yl)amino]-6,6-dimethyl-N-[trans-2-phenylcyclopropyl]-4,6-dihydropyrrolo[3,4-c]pyrazole-5(1H)-carboxamide], the Ki is 660 nM.
`CC1(C)c2[nH]nc(Nc3ncncc3F)c2CN1C(=O)N[C@H]1C[C@@H]1c1ccccc1` (relative stereo) [Example 48, 3-[(5-fluoropyrimidin-4-yl)amino]-6,6-dimethyl-N-[trans-2-phenylcyclopropyl]-4,6-dihydropyrrolo[3,4-c]pyrazole-5(1H)-carboxamide] displayed a Ki of 1000 nM.
To `CC1(C)c2[nH]nc(Nc3ncnc4ccccc34)c2CN1C(=O)N[C@@H]1C[C@H]1c1ccccc1` (relative stereo) [Example 85, 3-(quinazolin-4-ylamino)-6,6-dimethyl-N-[trans-2-phenylcyclopropyl]-4,6-dihydropyrrolo[3,4-c]pyrazole-5(1H)-carboxamide] belongs 100 nM; to `CC1(C)c2[nH]nc(Nc3nc(C4CC4)nc4ccccc34)c2CN1C(=O)N[C@@H]1C[C@H]1c1ccccc1` (relative stereo) [Example 86, 3-[(2-cyclopropylquinazolin-4-yl)amino]-6,6-dimethyl-N-[trans-2-phenylcyclopropyl]-4,6-dihydropyrrolo[3,4-c]pyrazole-5(1H)-carboxamide], 55 nM.
`CNC(=O)[C@@H]1CCCN1c1nc(Nc2n[nH]c3c2CN(C(=O)NC2CC2c2ccccc2)C3(C)C)nc(OC)n1` (some centres unmarked) [Example 17] returned an inhibition constant (Ki) of 770 nM.
`COc1nc(Nc2n[nH]c3c2CN(C(=O)NC2CC2c2ccccc2)C3(C)C)nc(N2CC2C)n1` (stereo not drawn) [Example 18, 3-{[4-methoxy-6-(2-methylaziridin-1-yl)-1,3,5-triazin-2-yl]amino}-6,6-dimethyl-N-[trans-2-phenylcyclopropyl]-4,6-dihydropyrrolo[3,4-c]pyrazole-5(1H)-carboxamide] displayed a Ki of 340 nM.
As to `COc1nc(Nc2n[nH]c3c2CN(C(=O)NC2CC2c2ccccc2)C3(C)C)nc(N2CCC[C@H]2C(N)=O)n1` (stereo partly drawn) [Example 21, 3-({4-[(2S)-2-(aminocarbonyl)pyrrolidin-1-yl]-6-methoxy-1,3,5-triazin-2-yl}amino)-6,6-dimethyl-N-[trans-2-phenylcyclopropyl]-4,6-dihydropyrrolo[3,4-c]pyrazole-5(1H)-carboxamide], the affinity, expressed as Ki, was 240 nM.
Compound `CN(C)c1nc(Nc2n[nH]c3c2CN(C(=O)NC2C[C@@H]2c2ccccc2)C3(C)C)nc(N2CCC[C@H]2C(N)=O)n1` (some centres unmarked) [Example 22] returned a Ki of 720 nM. Compared with the last compound, the Ki is about 3-fold higher.
To `Cc1cc(C)nc(Nc2n[nH]c3c2CN(C(=O)NC2C[C@@H]2c2ccccc2)C3(C)C)n1` (some centres unmarked) [Example 24] belongs 640 nM; to `CCc1cc(Nc2n[nH]c3c2CN(C(=O)N[C@H](CN(C)C)c2ccccc2)C3(C)C)ncn1` [Example 54, N-[(1S)-2-(Dimethylamino)-1-phenylethyl]-3-[(6-ethylpyrimidin-4-yl)amino]-6,6-dimethyl-4,6-dihydropyrrolo[3,4-c]pyrazole-5(1H)-carboxamide], 140 nM.
With `CN(C)C[C@@H](NC(=O)N1Cc2c(Nc3ncnc4c3ncn4C)n[nH]c2C1(C)C)c1ccccc1` [Example 57, N-[(1S)-2-(dimethylamino)-1-phenylethyl]-6,6-dimethyl-3-[(9-methyl-9H-purin-6-yl)amino]-4,6-dihydropyrrolo[3,4-c]pyrazole-5(1H)-carboxamide], the Ki was determined as 940 nM.
